Assay results as given in paper doi:10.1101/2020.06.11.145995v1 (biorxiv, 2020).
Read-outs that look alike come from different tables or passages of the source. Values belong to the compound of their own block, whether it stands above or below them.

Tests used:
Experiment in all cases: biochemical
[1] = molecular target: PLK3 (Homo sapiens, UniProt Q9H4B4)
[2] = molecular target: ULK1 (Homo sapiens, UniProt O75385)
[3] = molecular target: NEK2 (Homo sapiens, UniProt P51955)
[4] = molecular target: TSSK1B (Homo sapiens, UniProt Q9BXA7)
[5] = molecular target: TRPM6 (Homo sapiens, UniProt Q9BX84)
[6] = molecular target: SIK (Homo sapiens, UniProt P57059)
[7] = molecular target: YSK4 (Homo sapiens, UniProt Q56UN5)
[8] = molecular target: PIK3CA(E542K) (Homo sapiens, UniProt P42336, E542K)
Sequence of PIK3CA(E542K) (P42336 whole entry E542K): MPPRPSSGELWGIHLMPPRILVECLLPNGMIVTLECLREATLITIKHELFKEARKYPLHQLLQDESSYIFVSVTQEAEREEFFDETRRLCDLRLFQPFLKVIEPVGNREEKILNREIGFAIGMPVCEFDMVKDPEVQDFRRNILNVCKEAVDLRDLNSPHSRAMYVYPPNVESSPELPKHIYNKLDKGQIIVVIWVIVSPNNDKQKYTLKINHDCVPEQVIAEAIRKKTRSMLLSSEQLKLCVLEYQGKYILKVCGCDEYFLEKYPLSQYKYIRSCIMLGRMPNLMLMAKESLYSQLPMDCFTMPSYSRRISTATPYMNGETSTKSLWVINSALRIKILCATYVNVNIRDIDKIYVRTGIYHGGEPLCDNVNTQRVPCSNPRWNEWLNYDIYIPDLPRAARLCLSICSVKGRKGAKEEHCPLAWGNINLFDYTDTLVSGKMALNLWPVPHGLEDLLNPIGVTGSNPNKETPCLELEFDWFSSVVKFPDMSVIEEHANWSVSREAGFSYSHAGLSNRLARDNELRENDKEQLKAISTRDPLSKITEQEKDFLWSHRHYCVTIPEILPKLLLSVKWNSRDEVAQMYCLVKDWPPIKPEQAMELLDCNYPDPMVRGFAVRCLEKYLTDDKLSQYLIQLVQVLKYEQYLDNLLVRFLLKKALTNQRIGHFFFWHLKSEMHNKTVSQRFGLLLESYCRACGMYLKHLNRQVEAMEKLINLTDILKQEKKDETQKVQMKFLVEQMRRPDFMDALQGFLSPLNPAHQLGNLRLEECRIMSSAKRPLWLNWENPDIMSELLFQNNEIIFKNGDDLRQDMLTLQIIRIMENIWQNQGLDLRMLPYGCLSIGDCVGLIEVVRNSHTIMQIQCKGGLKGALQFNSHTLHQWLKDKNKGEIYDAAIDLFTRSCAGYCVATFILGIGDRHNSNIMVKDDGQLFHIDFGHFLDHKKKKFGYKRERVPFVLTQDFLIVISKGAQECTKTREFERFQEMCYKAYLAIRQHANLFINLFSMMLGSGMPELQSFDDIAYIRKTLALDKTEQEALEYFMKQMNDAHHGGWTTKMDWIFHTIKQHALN

[9] = molecular target: PRKG2 (Homo sapiens, UniProt Q13237)
[10] = molecular target: PRKCD (Homo sapiens, UniProt Q05655)
[11] = molecular target: NEK7 (Homo sapiens, UniProt Q8TDX7)
[12] = molecular target: RIPK2 (Homo sapiens, UniProt O43353)
[13] = molecular target: PRKD2 (Homo sapiens, UniProt Q9BZL6)
[14] = molecular target: YANK3 (Homo sapiens, UniProt Q86UX6)
[15] = molecular target: TLK1 (Homo sapiens, UniProt Q9UKI8)
[16] = molecular target: TAOK1 (Homo sapiens, UniProt Q7L7X3)
Sequence of TAOK1 (Q7L7X3 whole entry): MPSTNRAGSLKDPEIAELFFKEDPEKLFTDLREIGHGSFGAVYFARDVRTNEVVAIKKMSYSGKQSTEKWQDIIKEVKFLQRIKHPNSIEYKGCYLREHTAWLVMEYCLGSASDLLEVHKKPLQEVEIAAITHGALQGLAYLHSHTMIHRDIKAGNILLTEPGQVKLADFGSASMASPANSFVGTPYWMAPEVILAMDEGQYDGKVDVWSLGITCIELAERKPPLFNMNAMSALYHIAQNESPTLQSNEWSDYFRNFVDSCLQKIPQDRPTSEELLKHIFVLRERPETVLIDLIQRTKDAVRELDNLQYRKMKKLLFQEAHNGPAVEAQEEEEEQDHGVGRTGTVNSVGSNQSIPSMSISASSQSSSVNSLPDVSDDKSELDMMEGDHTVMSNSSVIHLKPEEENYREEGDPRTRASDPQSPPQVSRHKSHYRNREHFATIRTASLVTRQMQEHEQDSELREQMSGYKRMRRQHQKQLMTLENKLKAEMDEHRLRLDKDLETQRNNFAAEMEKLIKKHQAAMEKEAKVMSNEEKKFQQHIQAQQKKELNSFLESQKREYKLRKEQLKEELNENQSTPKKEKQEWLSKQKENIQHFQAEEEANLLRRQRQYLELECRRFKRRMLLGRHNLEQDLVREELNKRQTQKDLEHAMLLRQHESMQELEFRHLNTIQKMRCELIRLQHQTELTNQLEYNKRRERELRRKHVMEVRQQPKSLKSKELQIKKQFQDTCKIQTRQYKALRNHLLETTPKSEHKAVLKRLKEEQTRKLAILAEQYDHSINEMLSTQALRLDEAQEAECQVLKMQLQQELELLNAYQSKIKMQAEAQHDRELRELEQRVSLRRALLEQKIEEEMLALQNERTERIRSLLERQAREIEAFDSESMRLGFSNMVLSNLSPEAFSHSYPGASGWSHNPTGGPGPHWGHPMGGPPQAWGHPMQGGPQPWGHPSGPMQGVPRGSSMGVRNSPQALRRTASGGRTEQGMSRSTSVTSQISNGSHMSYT

[17] = molecular target: RPS6KA4 (Homo sapiens, UniProt O75676)
Sequence of RPS6KA4 (O75676 whole entry): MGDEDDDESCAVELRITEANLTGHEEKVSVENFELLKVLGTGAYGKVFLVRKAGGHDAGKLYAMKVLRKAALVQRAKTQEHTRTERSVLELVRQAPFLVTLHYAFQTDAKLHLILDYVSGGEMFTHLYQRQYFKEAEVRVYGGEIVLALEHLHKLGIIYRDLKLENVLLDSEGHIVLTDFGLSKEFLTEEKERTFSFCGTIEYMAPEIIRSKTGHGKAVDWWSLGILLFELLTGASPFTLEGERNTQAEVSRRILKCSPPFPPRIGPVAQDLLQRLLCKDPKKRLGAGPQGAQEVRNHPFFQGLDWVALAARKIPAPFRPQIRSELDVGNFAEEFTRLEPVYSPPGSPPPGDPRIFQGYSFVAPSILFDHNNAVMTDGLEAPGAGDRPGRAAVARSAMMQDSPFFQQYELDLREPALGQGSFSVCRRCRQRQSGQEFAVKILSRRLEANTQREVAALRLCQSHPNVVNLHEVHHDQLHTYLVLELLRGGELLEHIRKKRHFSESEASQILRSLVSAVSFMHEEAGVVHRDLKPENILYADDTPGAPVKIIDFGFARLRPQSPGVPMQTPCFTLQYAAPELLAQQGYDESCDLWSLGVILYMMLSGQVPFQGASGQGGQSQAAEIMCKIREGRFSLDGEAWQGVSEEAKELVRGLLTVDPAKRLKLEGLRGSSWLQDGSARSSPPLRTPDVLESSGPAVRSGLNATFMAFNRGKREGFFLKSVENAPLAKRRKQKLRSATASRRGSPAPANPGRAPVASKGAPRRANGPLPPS

[18] = molecular target: RSK4 (Homo sapiens, UniProt Q9UK32)
Sequence of RSK4 (Q9UK32 whole entry): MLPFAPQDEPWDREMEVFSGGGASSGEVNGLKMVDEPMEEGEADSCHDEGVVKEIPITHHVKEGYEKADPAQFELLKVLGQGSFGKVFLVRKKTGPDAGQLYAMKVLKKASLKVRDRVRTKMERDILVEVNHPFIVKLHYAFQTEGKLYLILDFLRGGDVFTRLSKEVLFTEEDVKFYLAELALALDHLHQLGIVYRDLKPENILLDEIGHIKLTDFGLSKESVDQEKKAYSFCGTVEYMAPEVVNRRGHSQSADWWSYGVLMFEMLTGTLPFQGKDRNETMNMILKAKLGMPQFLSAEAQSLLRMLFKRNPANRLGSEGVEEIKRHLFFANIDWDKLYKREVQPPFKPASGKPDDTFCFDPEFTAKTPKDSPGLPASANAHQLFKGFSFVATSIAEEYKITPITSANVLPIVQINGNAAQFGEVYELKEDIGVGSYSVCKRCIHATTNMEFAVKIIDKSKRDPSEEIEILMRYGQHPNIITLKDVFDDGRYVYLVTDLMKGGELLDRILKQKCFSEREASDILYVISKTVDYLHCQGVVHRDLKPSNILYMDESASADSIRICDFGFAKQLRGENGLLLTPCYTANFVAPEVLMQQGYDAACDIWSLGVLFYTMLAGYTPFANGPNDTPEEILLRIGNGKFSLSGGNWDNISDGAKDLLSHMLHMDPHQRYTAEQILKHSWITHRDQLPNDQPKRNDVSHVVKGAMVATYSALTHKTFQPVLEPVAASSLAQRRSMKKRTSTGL

[19] = molecular target: PDGFRB (Homo sapiens, UniProt P09619)
[20] = molecular target: PIK3CA(H1047L) (Homo sapiens, UniProt P42336, H1047L)
[21] = molecular target: SRMS (Homo sapiens, UniProt Q9H3Y6)
[22] = molecular target: ZAP70 (Homo sapiens, UniProt P43403)
[23] = molecular target: RAF1 (Homo sapiens, UniProt P04049)
[24] = molecular target: RIOK2 (Homo sapiens, UniProt Q9BVS4)
[25] = molecular target: SgK110 (Homo sapiens, UniProt P0C264)
[26] = molecular target: PAK2 (Homo sapiens, UniProt Q13177)
[27] = molecular target: PIK3CA(M1043I (Homo sapiens, UniProt P42336, M1043I))
[28] = molecular target: TAOK3 (Homo sapiens, UniProt Q9H2K8)
[29] = molecular target: RIOK3 (Homo sapiens, UniProt O14730)
[30] = read-out: CPT-1-70-1 (1μM) % control
[31] = read-out: CPT-1-70-1 (1μM) % control, Kin.Dom.1-N-terminal
[32] = read-out: CPT-1-70-1 (1μM) % control, Kin.Dom.2-C-terminal
[33] = read-out: HYJ-2-002-1 (1μM) % control
[34] = read-out: HYJ-2-002-1 (1μM) % control, Kin.Dom.1-N-terminal
[35] = read-out: HYJ-2-002-1 (1μM) % control, Kin.Dom.2-C-terminal

Sequence of ULK1 (O75385 whole entry): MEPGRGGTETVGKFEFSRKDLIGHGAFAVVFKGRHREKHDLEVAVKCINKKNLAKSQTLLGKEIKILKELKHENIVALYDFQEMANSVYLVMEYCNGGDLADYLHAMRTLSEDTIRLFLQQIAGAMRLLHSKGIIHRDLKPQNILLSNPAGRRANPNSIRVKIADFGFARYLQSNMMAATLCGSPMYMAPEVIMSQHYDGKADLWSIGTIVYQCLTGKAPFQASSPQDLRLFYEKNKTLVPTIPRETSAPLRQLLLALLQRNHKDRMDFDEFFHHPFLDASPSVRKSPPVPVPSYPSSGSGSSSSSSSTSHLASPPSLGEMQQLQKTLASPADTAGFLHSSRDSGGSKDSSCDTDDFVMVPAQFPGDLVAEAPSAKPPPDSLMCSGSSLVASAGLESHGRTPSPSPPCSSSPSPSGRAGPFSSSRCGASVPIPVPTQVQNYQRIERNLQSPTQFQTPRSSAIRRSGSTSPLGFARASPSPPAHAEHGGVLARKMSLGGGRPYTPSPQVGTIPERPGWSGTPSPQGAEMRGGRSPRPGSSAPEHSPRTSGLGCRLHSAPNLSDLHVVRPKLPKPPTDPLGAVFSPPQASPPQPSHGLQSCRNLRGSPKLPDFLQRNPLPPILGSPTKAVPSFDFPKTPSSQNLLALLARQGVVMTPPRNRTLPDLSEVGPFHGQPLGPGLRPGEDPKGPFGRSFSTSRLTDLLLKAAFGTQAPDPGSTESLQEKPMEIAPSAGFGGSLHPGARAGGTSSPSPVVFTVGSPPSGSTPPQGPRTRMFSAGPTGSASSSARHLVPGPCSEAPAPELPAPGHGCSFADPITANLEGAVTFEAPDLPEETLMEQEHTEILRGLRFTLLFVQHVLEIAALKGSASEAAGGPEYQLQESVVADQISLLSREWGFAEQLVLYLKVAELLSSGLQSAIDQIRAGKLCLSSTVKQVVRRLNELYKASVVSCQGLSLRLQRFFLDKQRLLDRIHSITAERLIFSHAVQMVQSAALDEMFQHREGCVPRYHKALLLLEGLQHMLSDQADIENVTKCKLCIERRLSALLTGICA
Sequence of NEK2 (P51955 whole entry): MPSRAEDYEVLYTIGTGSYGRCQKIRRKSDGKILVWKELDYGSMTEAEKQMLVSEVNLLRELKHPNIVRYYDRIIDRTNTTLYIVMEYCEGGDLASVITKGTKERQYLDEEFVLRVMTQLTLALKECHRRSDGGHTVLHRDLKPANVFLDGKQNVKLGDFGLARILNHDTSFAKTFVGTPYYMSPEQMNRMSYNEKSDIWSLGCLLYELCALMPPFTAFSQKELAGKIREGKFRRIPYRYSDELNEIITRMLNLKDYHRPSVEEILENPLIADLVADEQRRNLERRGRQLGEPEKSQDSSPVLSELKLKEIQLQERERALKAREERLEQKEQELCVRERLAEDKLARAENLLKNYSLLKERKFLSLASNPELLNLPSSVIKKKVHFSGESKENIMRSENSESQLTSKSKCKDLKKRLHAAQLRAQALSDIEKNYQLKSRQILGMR

SMILES: CN1CCN(c2ccc(Nc3nc(Oc4ccc(NC(=O)CCl)cc4)c4cc[nH]c4n3)cc2)CC1 [CPT1-70-1]
remaining activity at 1 µM [1, 30]: 100% | remaining activity at 1 µM [2, 30]: 32% | remaining activity at 1 µM [3, 30]: 100% | remaining activity at 1 µM [4, 30]: 25% | remaining activity at 1 µM [5, 30]: 48% | remaining activity at 1 µM [6, 30]: 100% | remaining activity at 1 µM [7, 30]: 0.45% | remaining activity at 1 µM [8, 30]: 100% | remaining activity at 1 µM [9, 30]: 100% | remaining activity at 1 µM [10, 30]: 100% | remaining activity at 1 µM [11, 30]: 100% | remaining activity at 1 µM [12, 30]: 100% | remaining activity at 1 µM [13, 30]: 70% | remaining activity at 1 µM [14, 30]: 100% | remaining activity at 1 µM [15, 30]: 100% | remaining activity at 1 µM [16, 30]: 96% | remaining activity at 1 µM [17, 31]: 100% | remaining activity at 1 µM [17, 32]: 79% | remaining activity at 1 µM [18, 31]: 45% | remaining activity at 1 µM [18, 32]: 100% | remaining activity at 1 µM [19, 30]: 6.9% | remaining activity at 1 µM [20, 30]: 100% | remaining activity at 1 µM [21, 30]: 100% | remaining activity at 1 µM [22, 30]: 0.2% | remaining activity at 1 µM [23, 30]: 86% | remaining activity at 1 µM [24, 30]: 5.2% | remaining activity at 1 µM [25, 30]: 100% | remaining activity at 1 µM [26, 30]: 64% | remaining activity at 1 µM [27, 30]: 100% | remaining activity at 1 µM [28, 30]: 71% | remaining activity at 1 µM [29, 30]: 53%

remaining activity at 1 µM [1, 33]: 100% | remaining activity at 1 µM [2, 33]: 89% | remaining activity at 1 µM [3, 33]: 95% | remaining activity at 1 µM [4, 33]: 100% | remaining activity at 1 µM [5, 33]: 100% | remaining activity at 1 µM [6, 33]: 1.8% | remaining activity at 1 µM [7, 33]: 0.45% | remaining activity at 1 µM [8, 33]: 100% | remaining activity at 1 µM [9, 33]: 100% | remaining activity at 1 µM [10, 33]: 78% | remaining activity at 1 µM [11, 33]: 100% | remaining activity at 1 µM [12, 33]: 5.3% | remaining activity at 1 µM [13, 33]: 42% | remaining activity at 1 µM [14, 33]: 100% | remaining activity at 1 µM [15, 33]: 74% | remaining activity at 1 µM [16, 33]: 34% | remaining activity at 1 µM [17, 34]: 99% | remaining activity at 1 µM [17, 35]: 100% | remaining activity at 1 µM [18, 34]: 100% | remaining activity at 1 µM [18, 35]: 28% | remaining activity at 1 µM [19, 33]: 0% | remaining activity at 1 µM [20, 33]: 100% | remaining activity at 1 µM [21, 33]: 8.4% | remaining activity at 1 µM [22, 33]: 69% | remaining activity at 1 µM [23, 33]: 8.9% | remaining activity at 1 µM [24, 33]: 35% | remaining activity at 1 µM [25, 33]: 96% | remaining activity at 1 µM [26, 33]: 99% | remaining activity at 1 µM [27, 33]: 100% | remaining activity at 1 µM [28, 33]: 0.45% | remaining activity at 1 µM [29, 33]: 100%
SMILES: CCN1CCN(Cc2ccc(NC(=O)c3ccc(C)c(CCc4cnc5[nH]ccc5c4OC)c3)cc2C(F)(F)F)CC1 [HYJ-2-002-1]
